Where “and” joins values, the source holds several entries; their conditions need not be identical. Equal entries are not always repeated.
Assays:
15-LO = biological target: T1, 15-LO (Homo sapiens, UniProt P16050); assay: 15-HETE formation in intact PMNL preparations, A23187 + 20 µM AA; format: cell-based; conditions: 15 min preincubation, A23187 2.5 µM + 20 µM AA, n.i. = no inhibition observed; for PMNL (20 µM AA) 15-HETE IC50: intact PMNL; for IC50: PMNL (20 µM AA) 15-HETE IC50, intact PMNL
T1 construct: endogenous in cells; host or cells: eosinophils in human PMNL preparations
T1 sequence (P16050 1-662): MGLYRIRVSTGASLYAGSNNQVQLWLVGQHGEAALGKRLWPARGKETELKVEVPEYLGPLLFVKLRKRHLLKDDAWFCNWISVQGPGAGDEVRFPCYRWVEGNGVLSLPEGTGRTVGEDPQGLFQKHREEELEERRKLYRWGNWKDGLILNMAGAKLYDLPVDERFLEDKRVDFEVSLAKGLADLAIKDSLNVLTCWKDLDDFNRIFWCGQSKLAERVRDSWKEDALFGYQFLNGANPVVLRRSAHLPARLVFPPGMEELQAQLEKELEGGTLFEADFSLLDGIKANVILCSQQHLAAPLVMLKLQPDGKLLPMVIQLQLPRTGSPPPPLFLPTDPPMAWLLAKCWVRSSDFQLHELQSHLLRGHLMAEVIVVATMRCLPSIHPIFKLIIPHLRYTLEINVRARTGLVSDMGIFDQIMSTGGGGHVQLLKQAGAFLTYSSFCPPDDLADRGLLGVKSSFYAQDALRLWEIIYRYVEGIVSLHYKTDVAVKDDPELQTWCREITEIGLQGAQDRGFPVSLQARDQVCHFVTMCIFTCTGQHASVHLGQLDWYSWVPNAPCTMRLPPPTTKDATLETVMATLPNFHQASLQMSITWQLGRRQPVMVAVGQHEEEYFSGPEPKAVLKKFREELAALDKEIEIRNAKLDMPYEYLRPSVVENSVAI
Protocol: Buffy coats from different donors of different blood types were commercially obtained from DRK Blutspendedienst Baden-Württemberg Institute Frankfurt. Donors have given their written consent. […] Following separation, the supernatant was transferred very gently to new 50-ml tubes containing lymphocyte separation medium (LSM) and centrifuged for 10 min at 800 ×g at RT with the centrifuge brake turned off. Afterwards, the supernatant was decanted carefully to discard the platelets and monocytes. The PMNL were washed with 1× PBS before the residual erythrocytes were lysed in two cycles: the cell pellet was resuspended with 10 ml H2O and vortexed for 45 s, and lysis was stopped with 40 ml 1 × PBS. After 10-min centrifugation at 200 ×g at RT, the cycle was repeated once. The supernatant was aspirated, the cell pellet resuspended in 5 ml PBS/glucose and initially separated PMNL preparations with different blood types were finally pooled to gain a sufficient number of cells. […] The enzyme was diluted in PBS/EDTA/ATP, transferred into 5-ml glass tubes, and stored on ice. […] The reaction was stopped by placing the glass tubes on ice. The supernatants were transferred to 1.5 ml reaction tubes and stored at −80°C before LC-MS (liquid chromatography and mass spectrometry) analysis of LTB4 and HETEs as described in 2.6 at the Institute of Pharmacology, Goethe University, University Hospital, Germany. The lipid mediators LTB4, hydroxyeicosatetraenoic acids, 5(S)-HETE, 12(S)-HETE, 15(S)-HETE and 20-HETE were analyzed using liquid chromatography tandem-mass spectroscopy (LC-MS/MS). The LC-MS/MS system consisted of a 5500 QTrap mass spectrometer (Sciex, Darmstadt, Germany), operating in negative ESI mode, an Agilent 1200 HPLC system (Agilent, Waldbronn, Germany) and an HTC Pal autosampler (Chromtech, Idstein, Germany). Sample extraction of LTB4 and HETEs were performed using liquid-liquid extraction: 200 µl of the sample were gently mixed with 20 µl of methanol and 20 µl of internal standard solution and extracted twice with 600 µl ethyl acetate. […] Working solutions of all analytes were prepared in methanol containing 0.1% BHT. The calibration standards were prepared by further dilution of the working standards. […] The residues were reconstituted in 50 µl of methanol:water:BHT (50:50:10^−4, v/v/v) prior to injection into the LC-MS/MS system. Chromatographic separation was achieved using a Gemini NX C18 column (150 mm × 2 mm ID, 5 µm, Phenomenex, Aschaffenburg, Germany) with a precolumn of the same material. A linear gradient was employed at a flow rate of 0.5 ml/min and a total run time of 17.5 min. Mobile phases were A water:ammonia (100:0.05, v/v) and B acetonitrile:ammonia (100:0.05, v/v). […] All data were acquired using Analyst software v1.6.2 and quantitation was performed by MultiQuant software v3.0 (both Sciex, Darmstadt, Germany) using the internal standard method (isotope-dilution mass spectrometry). Calibration curves were calculated by linear regression with 1/x.

HT-29 cells = assay: WST-1 cell viability assay, HT-29; format: cell-based, human; conditions: n.i. = no inhibition observed; for IC50: Homo sapiens, HT-29, 48 h
Protocol: Cell viability was analyzed with the WST-1 assay based on the cleavage of the stable tetrazolium salt WST-1 by the mitochondrial reductase system. Cells were seeded in the appropriate densities in a clear 96-well plate and settled overnight at 37°C in 5% CO2. The next day, the cells were treated with NFA or the substances of interest (≤0.1% dimethyl sulfoxide [DMSO]) and incubated for 24 or 48 h at 37°C in 5% CO2. Cell viability was analyzed by adding 10 µl WST-1 solution (Roche, Basel, Switzerland) and subsequently incubating the cells at 37°C for another 30–40 min. Absorbance was measured at 450 nm with a control wavelength at 620 nm using a plate reader.
Besides targeting the NF-κB pathway, the anti-tumorigenic effects of NFA can be observed by a reduction of colorectal cancer cell viability. […] Again, the cytotoxic effects of NFA were determined in HCT-116 and HT-29 colorectal cancer cells in the present study. […] HCT-116 cells were treated with increasing concentrations of NFA differing in chain length and Michael acceptor position for 24 h, and cell viability was determined using the WST-1 assay. Due to their prolonged cell division rate and their lack of sensitivity towards NFA ([Kühn et al., 2018]), HT-29 cells were treated for 48 h to gain improved NFA activity.

SMILES	PMNL (20 µM AA) 15-HETE IC50 (15-LO)	IC50 (HT-29 cells) [µM]	IC50 (15-LO)	HT-29 (48 h) IC50 (HT-29 cells)
CCC=C(CCCCCCCC(=O)O)[N+](=O)[O-] [12.9.9, 9-nitro-dodec-9-enoic acid]	n.i.	~31.5	–	–
CCCCC=C(CCCCCCCC(=O)O)[N+](=O)[O-] [14.9.9, 9-nitro-tetradec-9-enoic acid]	n.i.	27.4 ± 1	–	–
CCCCCCC=C(CCCCCCCC(=O)O)[N+](=O)[O-] [16.9.9, 9-nitro-hexadec-9-enoic acid]	n.i.	12.7 ± 1.1	–	–
CCCCCCCCCCCCCC=C(CCC(=O)O)[N+](=O)[O-] [18.4.4, 4-nitro-octadec-4-enoic acid]	–	23.9 ± 1.1	7.7 ± 1.2 µM	–
CCCCCCCCCCCCC=C(CCCC(=O)O)[N+](=O)[O-] [18.5.5, 5-nitro-octadec-5-enoic acid]	–	18.5 ± 1.1	8.9 ± 1.2 µM	–
CCCCCCCCCCCC=C(CCCCC(=O)O)[N+](=O)[O-] [18.6.6, 6-nitro-octadec-6-enoic acid]	–	11.1 ± 1.1	14.8 ± 1.1 µM	–
CCCCCCCCCCCC(=CCCCCC(=O)O)[N+](=O)[O-] [18.6.7, 7-nitro-octadec-6-enoic acid]	–	13.8 ± 1.1	17.3 ± 1.1 µM	–
CCCCCCCCCCC=C(CCCCCC(=O)O)[N+](=O)[O-] [18.7.7, 7-nitro-octadec-7-enoic acid]	–	4.4 ± 1.1	7.6 ± 1.1 µM	–
CCCCCCCCCC=C(CCCCCCC(=O)O)[N+](=O)[O-] [18.8.8, 8-nitro-octadec-8-enoic acid]	–	3.3 ± 1.1	16 ± 1.1 µM	–
CCCCCCCCCC(=CCCCCCCC(=O)O)[N+](=O)[O-] [18.8.9, 9-nitro-octadec-8-enoic acid]	–	8 ± 1.1	23.4 ± 1.3 µM	–
CCCCCCCCC=C(CCCCCCCC(=O)O)[N+](=O)[O-] [18.9.9, 9-nitro-octadec-9-enoic acid]	–	8.8 ± 1.1	17.6 µM and 20.4 µM	–
CCCCCCCCC(=CCCCCCCCC(=O)O)[N+](=O)[O-] [18.9.10, 10-nitro-octadec-9-enoic acid]	–	15.7 ± 1.1	20.5 ± 1.3 µM	–
CCCCCCCC=C(CCCCCCCCC(=O)O)[N+](=O)[O-] [18.10.10, 10-nitro-octadec-10-enoic acid]	–	13.9 ± 1.1	19.6 ± 1.1 µM	–
CCCCCCC=C(CCCCCCCCCC(=O)O)[N+](=O)[O-] [18.11.11, 11-nitro-octadec-11-enoic acid]	–	16.6 ± 1.1	26 ± 1.3 µM	–
CCCCCCCCCCC=C(CCCCCCCC(=O)O)[N+](=O)[O-] [20.9.9, 9-nitro-eicos-9-enoic acid]	–	8.1 ± 1.1	21.2 ± 1.1 µM	–
CCCCCCCC/C=C\CCCCCCCC(=O)O [OA, oleic acid, reference compound]	not affected and n.i.	–	–	failed to induce cytotoxic effects and n.i.

From paper PMC8637440, “Structural Modifications Yield Novel Insights Into the Intriguing Pharmacodynamic Potential of Anti-inflammatory Nitro-Fatty Acids” (Frontiers in Pharmacology, 2021)
